Measured values reported in patent US20230117034A1, “PYRAZOLOTRIAZINES” (Bayer Aktiengesellschaft, priority 2019, published 2023).

Tests used:
CDK2/CycE = biological target: T1, CDK2/CycE (Homo sapiens, UniProt P24941); assay: CDK2/CycE kinase assay (TR-FRET, 2 mM ATP); format: biochemical; conditions: 2 mM ATP (high ATP); median; read-out: CDK2/CyclinE, 2 mM ATP (high ATP), IC50 (median)
T1 construct: purchased ProQinase GmbH (Freiburg, Germany); host or cells: insect cells (Sf9)
Source text: CDK2/CycE-inhibitory activity of compounds of the present invention was quantified employing the CDK2/CycE TR-FRET assay as described in the following paragraphs.
Recombinant fusion proteins of GST and human CDK2 and of GST and human CycE, expressed in insect cells (Sf9) and purified by Glutathion-Sepharose affinity chromatography, were purchase from ProQinase GmbH (Freiburg, Germany). As substrate for the kinase reaction biotinylated peptide biotin-Ttds-YISPLKSPYKISEG (C-terminus in amid form) was used which can be purchased e.g. form the company JERINI peptide technologies (Berlin, Germany).
For the assay 50 nanoL of a 100 fold concentrated solution of the test compound in DMSO was pipetted into a black low volume 384 well microtiter plate or a black 1536 well microtiter plate (both Greiner Bio-One, Frickenhausen, Germany), 2 microL of a solution of CDK2/CycE in aqueous assay buffer [50 millimol/L Tris/HCl pH 8.0, 10 millimol/L MgCl2, 1.0 millimol/L dithiothreitol, 0.1 millimol/L sodium ortho-vanadate, 0.01% (v/v) Nonidet-P40 (Sigma)] were added and the mixture was incubated for 15 min at 22° C. to allow pre-binding of the test compounds to the enzyme before the start of the kinase reaction. Then the kinase reaction was started by the addition of 3 microL of a solution of adenosine-tri-phosphate (ATP, 3.33 millimol/L=>final conc. in the 5 microL assay volume is 2 millimol/L) and substrate (1.25 micromol/L=>final conc. in the 5 microL assay volume is 0.75 micromol/L) in assay buffer and the resulting mixture was incubated for a reaction time of 25 min at 22° C. The concentration of CDK2/CycE was adjusted depending of the activity of the enzyme lot and was chosen appropriate to have the assay in the linear range, typical concentrations were in the range of 10 ng/ml. The reaction was stopped by the addition of 3 microL of a solution of TR-FRET detection reagents (0.333 micromol/L streptavidine-XL665 [Cisbio Bioassays, Codolet, France] and 1.67 nanomol/L anti-RB(pSer807/pSer8l 1)-antibody from BD Pharmingen [#558389] and 2 nanomol/L LANCE EU-W1024 labeled anti-mouse IgG antibody [Perkin-Elmer, product no. AD0077, as an alternative a Terbium-cryptate-labeled anti-mouse IgG antibody from Cisbio Bioassays can be used]) in an aqueous EDTA-solution (167 millimol/L EDTA, 0.2% (w/v) bovine serum albumin in 100 millimol/L HEPES pH 7.5).
(§1) The resulting mixture was incubated 1 h at 22° C. to allow the formation of complex between the phosphorylated biotinylated peptide and the detection reagents. Subsequently the amount of phosphorylated substrate was evaluated by measurement of the resonance energy transfer from the Eu-chelate to the streptavidine-XL. Therefore, the fluorescence emissions at 620 nm and 665 nm after excitation at 350 nm was measured in a TR-FRET reader, e.g. a Pherastar (BMG Labtechnologies, Offenburg, Germany) or a Viewlux (Perkin-Elmer). The ratio of the emissions at 665 nm and at […] was taken as the measure for the amount of phosphorylated substrate. The data were normalised (enzyme reaction without inhibitor=0% inhibition, all other assay components but no enzyme=100% inhibition).

CDK9/CycT1 = biological target: T2, CDK9/CycT1 (Homo sapiens, UniProt P50750); assay: CDK9/CycT1 high ATP kinase assay (TR-FRET, 2 mM ATP); format: biochemical; conditions: 2 mM ATP (high ATP); median; read-out: CDK9/CyclinT1, 2 mM ATP (high ATP), IC50 (median)
T2 construct: Recombinant full-length His-tagged human CDK9 and CycT1; purchased Life Technologies PV4131; host or cells: insect cells
Description: CDK9/CycT1-inhibitory activity of compounds of the present invention at a high ATP concentration after preincubation of enzyme and test compounds was quantified employing the CDK9/CycT1 TR-FRET assay as described in the following paragraphs.
Recombinant full-length His-tagged human CDK9 and CycT1, expressed in insect cells and purified by Ni-NTA affinity chromatography, were purchased from Life Technologies (Cat. No PV4131). As substrate for the kinase reaction biotinylated peptide biotin-Ttds-[…] (C-terminus in amide form) was used which can be purchased e.g. form the company JERINI peptide technologies (Berlin, Germany).
For the assay 50 nanoL of a 100 fold concentrated solution of the test compound in DMSO was pipetted into either a black low volume 384 well microtiter plate or a black 1536 well microtiter plate (both Greiner Bio-One, Frickenhausen, Germany), 2 microL of a solution of CDK9/CycT1 in aqueous assay buffer [50 millimol/L Tris/HCl pH 8.0, 10 millimol/L MgCl2, 1.0 millimol/L dithiothreitol, 0.1 millimol/L sodium ortho-vanadate, 0.01% (v/v) Nonidet-P40 (Sigma)] were added and the mixture was incubated for 15 min at 22° C. to allow pre-binding of the test compounds to the enzyme before the start of the kinase reaction. […] The concentration of CDK9/CycT1 was adjusted depending of the activity of the enzyme lot and was chosen appropriate to have the assay in the linear range, typical concentrations were in the range of 0.5 microg/ml.
as §1, with “substrate.” for “substrate. The data were normalised (enzyme reaction without inhibitor=0% inhibition, all other assay components but no enzyme=100% inhibition).”

[1] = test system: BRCA1 mRNA expression in MDA-MB-231 cells; assay: qRT-PCR assay: BRCA1 mRNA expression in MDA-MB-231; format: cell-based, human; conditions: Homo sapiens, MDA-MB-231, Inhibition of BRCA1 mRNA expression in MDA-MB-231 cells; median; read-out: RTqPCR-MDA-MB-231, IC50, BRCA1 (median)
Description: 3. qRT-PCR Assay: BRCA, ATR, MCL1 in MDA-MB-231, CAL-120
Tissue cultured human MDA-MB-231 human breast cancer cells were plated in 500 microL per well at 200,000 cells/well in a 24 well microtiter plate. After 24 h, the cells were exposed continuously for 24 h to test substances (substances were added with Tecan HP 0300 Dispenser). RNA was prepared using Qiagen RNeasy MiniKit (#74106), RNA was quantified using a NanoDrop Equipment, and 600 nano gamms of RNA was coverted to cDNA using a SuperScript VILO kit (Thermofisher #11755050) followed by qPCR amplification. BRCA1 and ATR gene expression was measured by RT-qPCR and normalised to GAPDH housekeeping gene expression. qPCR primer sets have been purchased from Thermo Fisher Scientific/Applied Biosystems: BRCA1, #Hs 01556193; ATR, #Hs 00992123; GAPDH, #Hs 03929097.

T2 sequence (P50750 whole entry): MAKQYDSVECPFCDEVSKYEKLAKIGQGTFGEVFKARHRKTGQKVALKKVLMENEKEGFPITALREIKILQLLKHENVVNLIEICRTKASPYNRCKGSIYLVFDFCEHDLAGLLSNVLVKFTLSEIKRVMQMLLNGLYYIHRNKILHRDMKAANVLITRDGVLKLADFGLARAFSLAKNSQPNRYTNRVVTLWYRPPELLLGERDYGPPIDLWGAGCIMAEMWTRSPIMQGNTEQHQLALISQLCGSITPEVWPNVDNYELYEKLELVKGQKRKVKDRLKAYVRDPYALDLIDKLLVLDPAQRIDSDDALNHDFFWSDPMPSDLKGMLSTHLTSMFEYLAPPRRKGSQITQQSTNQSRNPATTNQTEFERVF
T2 sequence (O60563 whole entry partner): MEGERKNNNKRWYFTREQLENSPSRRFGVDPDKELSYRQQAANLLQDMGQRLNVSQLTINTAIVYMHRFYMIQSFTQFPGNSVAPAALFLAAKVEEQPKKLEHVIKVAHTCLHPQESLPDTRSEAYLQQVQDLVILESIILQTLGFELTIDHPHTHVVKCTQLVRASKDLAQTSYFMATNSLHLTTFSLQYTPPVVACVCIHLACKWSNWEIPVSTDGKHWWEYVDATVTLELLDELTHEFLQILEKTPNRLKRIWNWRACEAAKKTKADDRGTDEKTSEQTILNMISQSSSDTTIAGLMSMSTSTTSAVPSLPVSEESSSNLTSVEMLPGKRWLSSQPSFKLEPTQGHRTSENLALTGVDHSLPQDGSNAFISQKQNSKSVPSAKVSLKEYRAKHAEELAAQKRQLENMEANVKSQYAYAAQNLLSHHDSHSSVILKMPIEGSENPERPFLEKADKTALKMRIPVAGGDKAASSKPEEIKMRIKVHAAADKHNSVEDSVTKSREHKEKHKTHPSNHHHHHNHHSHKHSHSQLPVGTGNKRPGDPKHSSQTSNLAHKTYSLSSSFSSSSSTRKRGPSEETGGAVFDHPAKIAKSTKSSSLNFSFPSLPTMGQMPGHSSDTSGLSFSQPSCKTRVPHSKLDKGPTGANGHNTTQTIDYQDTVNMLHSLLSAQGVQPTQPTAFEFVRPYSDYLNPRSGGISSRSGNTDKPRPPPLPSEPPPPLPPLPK

| Compound | IC50 (CDK2/CycE) [nM] | IC50 (CDK9/CycT1) [nM] | IC50 [1] [nM] |
| --- | --- | --- | --- |
| Fc1cc(-c2nnc(CNc3nc(N4CCOCC4)nc4c(Br)cnn34)[nH]2)cc(F)c1F [Example 100, 8-bromo-2-(morpholin-4-yl)-N-{[5-(3,4,5-trifluorophenyl)-4H-1,2,4-triazol-3-yl]methyl}pyrazolo[1,5-a][1,3,5]triazin-4-amine] | 1830 | 820 | 62.2 |
| CN1CCN(c2nc(NCc3nc4c(F)cccc4[nH]3)n3ncc(Br)c3n2)CC1 [Example 126, 8-bromo-N-[(4-fluoro-1H-benzimidazol-2-yl)methyl]-2-(4-methylpiperazin-1-yl)pyrazolo[1,5-a][1,3,5]triazin-4-amine] | 5990 | > 20000 | 10.1 |
| Brc1cnn2c(NCc3nc4ccccc4[nH]3)nc(N3C[C@@H]4C[C@H]3CO4)nc12 [Example 103, N-[(1H-benzimidazol-2-yl)methyl]-8-bromo-2-[(1S,4S)-2-oxa-5-azabicyclo[2.2.1]heptan-5-yl]pyrazolo[1,5-a][1,3,5]triazin-4-amine] | 9050 | > 20000 | 71.9 |
| NCCc1ccc2[nH]c(CNc3nc(N4CCOCC4)nc4c(Br)cnn34)nc2c1.O=CO [Example 113, formic acid-N-{[5-(2-aminoethyl)-1H-benzimidazol-2-yl]methyl}-8-bromo-2-(morpholin-4-yl)pyrazolo[1,5-a][1,3,5]triazin-4-amine (1/1)] | 1200 | > 18900 | 21.1 |
| CCN1CCN(c2nc(NCc3nc4ccccc4[nH]3)n3ncc(Br)c3n2)CC1 [Example 137, N-[(1H-benzimidazol-2-yl)methyl]-8-bromo-2-(4-ethylpiperazin-1-yl)pyrazolo[1,5-a][1,3,5]triazin-4-amine] | – | > 20000 | 205 |
| COc1ccc2[nH]c(CNc3nc(N4C[C@@H](C)O[C@@H](C)C4)nc4c(Br)cnn34)nc2c1 [Example 124, 8-bromo-2-[(2R, 6S)-2,6-dimethylmorpholin-4-yl]-N-[(5-methoxy-1H-benzimidazol-2-yl)methyl]pyrazolo[1,5-a][1,3,5]triazin-4-amine] | 8970 | 6100 | 4.66 |
| C[C@H]1CN(c2nc(NCc3nc4ccccc4[nH]3)n3ncc(Br)c3n2)CCN1C [Example 132, N-[(1H-benzimidazol-2-yl)methyl]-8-bromo-2-[(3S)-3,4-dimethylpiperazin-1-yl]pyrazolo[1,5-a][1,3,5]triazin-4-amine] | 7430 | > 20000 | 29.5 |
| O=S1(=O)CCN(c2nc(NCc3nc4ccccc4[nH]3)n3ncc(Br)c3n2)CC1 [Example 166, 4-(4-{[(1H-benzimidazol-2-yl)methyl]amino}-8-bromopyrazolo[1,5-a][1,3,5]triazin-2-yl)-1 lambda^6-thiomorpholine-1,1-dione] | 4700 | > 20000 | 46.2 |
| Clc1cccc(-c2cnn3c(NCc4nc5ccccc5[nH]4)nc(N4CCOCC4)nc23)c1 [Example 107, N-[(1H-benzimidazol-2-yl)methyl]-8-(3-chlorophenyl)-2-(morpholin-4-yl)pyrazolo[1,5-a][1,3,5]triazin-4-amine] | > 20000 | > 20000 | 151 |
| CC(C)c1cnn2c(NCc3nc4ccccc4[nH]3)nc(N(C)CC(C)(C)O)nc12 [Example 5, 1-{[4-{[(1H-benzimidazol-2-yl)methyl]amino}-8-(propan-2-yl)pyrazolo[1,5-a][1,3,5]triazin-2-yl](methyl)amino}-2-methylpropan-2-ol] | 1360 | > 20000 | 23.3 |

Continued, values first:

| IC50 (CDK2/CycE) [nM] | IC50 (CDK9/CycT1) [nM] | IC50 [1] [nM] | Compound |
| --- | --- | --- | --- |
| 5170 | > 20000 | 2.95 | COc1ccc2[nH]c(CNc3nc(N4CCOCC4)nc4c(Br)cnn34)nc2c1 [Example 160, 8-bromo-N-[(5-methoxy-1H-benzimidazol-2-yl)methyl]-2-(morpholin-4-yl)pyrazolo[1,5-a][1,3,5]triazin-4-amine] |
| 2420 | > 20000 | 29.6 | Brc1cnn2c(NCc3nc4ccccc4[nH]3)nc(N3C[C@H]4C[C@@H]3CO4)nc12 [Example 102, N-[(1H-benzimidazol-2-yl)methyl]-8-bromo-2-[(1R,4R)-2-oxa-5-azabicyclo[2.2.1]heptan-5-yl]pyrazolo[1,5-a][1,3,5]triazin-4-amine] |
| 3450 | 1420 | 33.8 | CN1CCN(c2nc(NCc3nnc(-c4cccc(F)c4)[nH]3)n3ncc(Br)c3n2)CC1 [Example 136, 8-bromo-N-{[5-(3-fluorophenyl)-4H-1,2,4-triazol-3-yl]methyl}-2-(4-methylpiperazin-1-yl)pyrazolo[1,5-a][1,3,5]triazin-4-amine] |
| > 20000 | > 20000 | 30 | c1ccc(-c2cnn3c(NCc4nc5ccccc5[nH]4)nc(N4CCOCC4)nc23)cc1 [Example 104, N-[(1H-benzimidazol-2-yl)methyl]-2-(morpholin-4-yl)-8-phenylpyrazolo[1,5-a][1,3,5]triazin-4-amine] |
| – | > 20000 | 2.53 | COc1ccc2[nH]c(CNc3nc(N4CCN(C)CC4)nc4c(Br)cnn34)nc2c1 [Example 161, 8-bromo-N-[(5-methoxy-1H-benzimidazol-2-yl)methyl]-2-(4-methylpiperazin-1-yl)pyrazolo[1,5-a][1,3,5]triazin-4-amine] |
